The text below walks through data of ChEMBL document CHEMBL3886917, “Benzimidazole-imidazole derivatives” (2016).

Assay [1] in a line: Transient Transfection Assay: In a transient set-up, a Huh-7 lunet hepatoma cell line was transiently transfected with an autonomously replicating RNA encoding a bi-cistronic expression construct. This construct comprises a firefly luciferase reporter gene preceding the NS3-NS5B subgenomic region of HCV (genotype 1a H77 or 1b Con1). Translation of the HCV subgenomic region is mediated by an internal ribosome entry site of encephalomyocarditis virus. The construct is furthermore flanked by 5' and 3' untranslated regions of HCV (genotype 1a H77 or 1b Con 1, respectively), which allow for replication of the RNA. In addition to the wild-type constructs, site-directed mutations were introduced into the transient HCV genotype 1b replicon in the gene encoding for the non-structural protein 5A (NS5A). More precisely, amino acid residues 28, 30, 31 and 93 in NS5A were independently altered. Cells were plated in 384 well plates in the presence of test and control compounds, which were added in various concentrations. Following an incubation of two days, replication of the HCV subgenomic replicon RNA was measured by assaying luciferase activity (using standard luciferase assay substrates and reagents and a Perkin Elmer ViewLux™ ultraHTS microplate imager). In kind it is cell-based. In general terms: A reporter such as luciferase makes a cellular process visible.

Assay [2] can be described thus: Stable Transfection Assay: The assay utilized the stably transfected cell line Huh-7 luc/neo (hereafter referred to as Huh-Luc). This cell line harbors an RNA encoding a bicistronic expression construct comprising the wild type NS3-NS5B regions of HCV type 1b translated from an Internal Ribosome Entry Site (IRES) from encephalomyocarditis virus (EMCV), preceded by a reporter portion (FfL-luciferase), and a selectable marker portion (neoR, neomycine phosphotransferase). The construct is flanked by 5' and 3' NTRs (non-translated regions) from HCV type 1b. Continued culture of the replicon cells in the presence of G418 (neoR) is dependent on the replication of the HCV RNA. The stably transfected replicon cells that replicate HCV RNA autonomously and to high levels, encoding inter alia luciferase, were used for screening the antiviral compounds. Background: In antiviral work, replicon cells carry a viral genome segment that copies itself.

As usually defined, the EC50 is the midpoint of the concentration-response curve. For the compound `COC(=O)N[C@H](C(=O)N1CCC[C@H]1c1ncc(-c2ccc3cc(-c4ccc5nc([C@@H]6CCCN6C(=O)[C@@H](NC(=O)OC)[C@@H](C)OC)[nH]c5c4)ccc3c2)[nH]1)C(C)C`, the EC50 in assay [1] is 7 pM.
Turning to `COC(=O)N[C@H](C(=O)N1CCC[C@H]1c1nc2ccc(-c3ccc4cc(-c5cnc([C@@H]6CCCN6C(=O)[C@@H](NC(=O)OC)[C@@H](C)OC)[nH]5)ccc4c3)cc2[nH]1)C(C)C`, the EC50 in assay [2] is 6 pM.
